From PubChem BioAssay AID2060507 (Molecular Pharmacology Branch, DTP, NCI, 2025)

Tested on: 519858-162-T-J1-PDC complex spheroid viability
Experiment: Anticancer human tumor 519858-162-T-J1-PDC patient-derived colon adenocarcinoma cell line growth inhibition [GQUAD]
Settings: for IC50: curve of first compound; for viability, T/C: stronger effect = lower value
How it was run: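 Multi-cell-type spheroids of tumor cells with HUVEC and mesenchymal stem cells, treated with drug combinations. Concentrations descend in half-log steps from near clinical Cmax, or from 10 microM where Cmax is unknown; viability read-out.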

[1] = second compound 0.0316 µM, first compound 0.0316 µM
[2] = second compound 0.0316 µM, first compound 0.1 µM
[3] = second compound 0.0316 µM, first compound 0.316 µM
[4] = second compound 0.0316 µM, first compound 1 µM
[5] = second compound 0.0316 µM, first compound 3.16 µM
[6] = second compound 0.0316 µM, first compound 10 µM
[7] = second compound 0.1 µM, first compound 0.0316 µM
[8] = second compound 0.1 µM, first compound 0.1 µM
[9] = second compound 0.1 µM, first compound 0.316 µM
[10] = second compound 0.1 µM, first compound 1 µM
[11] = second compound 0.1 µM, first compound 3.16 µM
[12] = second compound 0.1 µM, first compound 10 µM
[13] = second compound 0.316 µM, first compound 0.0316 µM
[14] = second compound 0.316 µM, first compound 0.1 µM
[15] = second compound 0.316 µM, first compound 0.316 µM
[16] = second compound 0.316 µM, first compound 1 µM
[17] = second compound 0.316 µM, first compound 3.16 µM
[18] = second compound 0.316 µM, first compound 10 µM
[19] = second compound 1 µM, first compound 0.0316 µM
[20] = second compound 1 µM, first compound 0.1 µM
[21] = second compound 1 µM, first compound 0.316 µM
[22] = second compound 1 µM, first compound 1 µM
[23] = second compound 1 µM, first compound 3.16 µM
[24] = second compound 1 µM, first compound 10 µM
[25] = second compound 3.16 µM, first compound 0.0316 µM
[26] = second compound 3.16 µM, first compound 0.1 µM
[27] = second compound 3.16 µM, first compound 0.316 µM
[28] = second compound 3.16 µM, first compound 1 µM
[29] = second compound 3.16 µM, first compound 3.16 µM
[30] = second compound 3.16 µM, first compound 10 µM
[31] = second compound 10 µM, first compound 0.0316 µM
[32] = second compound 10 µM, first compound 0.1 µM
[33] = second compound 10 µM, first compound 0.316 µM
[34] = second compound 10 µM, first compound 1 µM
[35] = second compound 10 µM, first compound 3.16 µM
[36] = second compound 10 µM, first compound 10 µM
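Further: spheroids exposed to compounds for 7 days.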
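Wherever viability, T/C is given: 100% = DMSO vehicle control viability.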

Compound `CCCS(=O)(=O)Nc1ccc(F)c(C(=O)c2c[nH]c3ncc(-c4ccc(Cl)cc4)cc23)c1F` + Cc1[nH]c2ccc(F)cc2c1-c1nc2c3cccnc3c3ncccc3c2[nH]1 has an IC50 (second compound 0.0316 µM) of over 10 µM, an IC50 (second compound 0.1 µM) of over 10 µM and an IC50 (second compound 0.316 µM) of over 10 µM. For the same compound, the IC50 (second compound 1 µM) was over 10 µM, the IC50 (second compound 3.16 µM) was 7 µM and the IC50 (second compound 10 µM) was over 10 µM. The viability, T/C [1] was 90.7%, the viability, T/C [2] was 92% and the viability, T/C [3] was 83.7%. It also gave a viability, T/C [4] of 129%, a viability, T/C [5] of 135% and a viability, T/C [6] of 101%. The viability, T/C [7] was 103%, the viability, T/C [8] was 119% and the viability, T/C [9] was 97.9%. It also gave a viability, T/C [10] of 113%, a viability, T/C [11] of 87.6% and a viability, T/C [12] of 107%. The viability, T/C [13] was 101%, the viability, T/C [14] was 116% and the viability, T/C [15] was 108%. It also gave a viability, T/C [16] of 75.4%, a viability, T/C [17] of 112% and a viability, T/C [18] of 119%. The viability, T/C [19] was 62.5%, the viability, T/C [20] was 74.1% and the viability, T/C [21] was 99.3%. The viability, T/C [22] was 99.2%, the viability, T/C [23] was 115% and the viability, T/C [24] was 101%. It also gave a viability, T/C [25] of 86.3%, a viability, T/C [26] of 51.3% and a viability, T/C [27] of 81.9%. For the same compound, the viability, T/C [28] was 72%, the viability, T/C [29] was 86% and the viability, T/C [30] was 38.7%. The viability, T/C [31] was 79.8%, the viability, T/C [32] was 53.7% and the viability, T/C [33] was 60.8%. It also gave a viability, T/C [34] of 89.2%, a viability, T/C [35] of 105% and a viability, T/C [36] of 109%.

Compound `Cc1[nH]c2ccccc2c1CCNCc1ccc(/C=C/C(=O)NO)cc1` + Cc1[nH]c2ccc(F)cc2c1-c1nc2c3cccnc3c3ncccc3c2[nH]1 has an IC50 (second compound 0.0316 µM) of over 0.316 µM, an IC50 (second compound 0.1 µM) of 0.091 µM and an IC50 (second compound 0.316 µM) of 0.165 µM. The IC50 (second compound 1 µM) was over 0.316 µM, the IC50 (second compound 3.16 µM) was over 0.316 µM and the IC50 (second compound 10 µM) was 0.134 µM. For the same compound, the viability, T/C (second compound 0.0316 µM, first compound 0.000999 µM) was 99.7%, the viability, T/C (second compound 0.0316 µM, first compound 0.00316 µM) was 117% and the viability, T/C (second compound 0.0316 µM, first compound 0.00999 µM) was 115%. It also gave a viability, T/C [1] of 120%, a viability, T/C (second compound 0.0316 µM, first compound 0.0999 µM) of 64.1% and a viability, T/C [3] of 49.7%. The viability, T/C (second compound 0.1 µM, first compound 0.000999 µM) was 82.1%, the viability, T/C (second compound 0.1 µM, first compound 0.00316 µM) was 128% and the viability, T/C (second compound 0.1 µM, first compound 0.00999 µM) was 117%. For the same compound, the viability, T/C [7] was 88.3%, the viability, T/C (second compound 0.1 µM, first compound 0.0999 µM) was 42% and the viability, T/C [9] was 51.3%. For the same compound, the viability, T/C (second compound 0.316 µM, first compound 0.000999 µM) was 113%, the viability, T/C (second compound 0.316 µM, first compound 0.00316 µM) was 67.8% and the viability, T/C (second compound 0.316 µM, first compound 0.00999 µM) was 76%. For the same compound, the viability, T/C [13] was 113%, the viability, T/C (second compound 0.316 µM, first compound 0.0999 µM) was 59.8% and the viability, T/C [15] was 37.2%. It also gave a viability, T/C (second compound 1 µM, first compound 0.000999 µM) of 107%, a viability, T/C (second compound 1 µM, first compound 0.00316 µM) of 54.1% and a viability, T/C (second compound 1 µM, first compound 0.00999 µM) of 86.5%. It also gave a viability, T/C [19] of 73.3%, a viability, T/C (second compound 1 µM, first compound 0.0999 µM) of 54.5% and a viability, T/C [21] of 53.2%. It also gave a viability, T/C (second compound 3.16 µM, first compound 0.000999 µM) of 65.3%, a viability, T/C (second compound 3.16 µM, first compound 0.00316 µM) of 56.5% and a viability, T/C (second compound 3.16 µM, first compound 0.00999 µM) of 64.8%. The viability, T/C [25] was 54%, the viability, T/C (second compound 3.16 µM, first compound 0.0999 µM) was 70.2% and the viability, T/C [27] was 46.7%. The viability, T/C (second compound 10 µM, first compound 0.000999 µM) was 76.9%, the viability, T/C (second compound 10 µM, first compound 0.00316 µM) was 77.7% and the viability, T/C (second compound 10 µM, first compound 0.00999 µM) was 55%. It also gave a viability, T/C [31] of 65.5%, a viability, T/C (second compound 10 µM, first compound 0.0999 µM) of 52.4% and a viability, T/C [33] of 43.2%.

Compound `Nc1ccn(C2OC(CO)C(O)C2(F)F)c(=O)n1` (stereo unspecified) + Cc1[nH]c2ccc(F)cc2c1-c1nc2c3cccnc3c3ncccc3c2[nH]1 has an IC50 (second compound 0.0316 µM) of over 10 µM, an IC50 (second compound 0.1 µM) of over 10 µM and an IC50 (second compound 0.316 µM) of over 10 µM. It also gave an IC50 (second compound 1 µM) of over 10 µM, an IC50 (second compound 3.16 µM) of over 10 µM and an IC50 (second compound 10 µM) of over 10 µM. For the same compound, the viability, T/C [1] was 131%, the viability, T/C [2] was 69.3% and the viability, T/C [3] was 89.4%. It also gave a viability, T/C [4] of 80.1%, a viability, T/C [5] of 83% and a viability, T/C [6] of 72.3%. For the same compound, the viability, T/C [7] was 85.9%, the viability, T/C [8] was 143% and the viability, T/C [9] was 70.5%. For the same compound, the viability, T/C [10] was 71%, the viability, T/C [11] was 82.9% and the viability, T/C [12] was 102%. It also gave a viability, T/C [13] of 93.3%, a viability, T/C [14] of 116% and a viability, T/C [15] of 78.5%. The viability, T/C [16] was 57.9%, the viability, T/C [17] was 70% and the viability, T/C [18] was 69.8%. For the same compound, the viability, T/C [19] was 90.7%, the viability, T/C [20] was 81.9% and the viability, T/C [21] was 89.5%. The viability, T/C [22] was 76.9%, the viability, T/C [23] was 84.2% and the viability, T/C [24] was 73.7%. It also gave a viability, T/C [25] of 54.4%, a viability, T/C [26] of 76.8% and a viability, T/C [27] of 61.9%. The viability, T/C [28] was 47.2%, the viability, T/C [29] was 95.4% and the viability, T/C [30] was 60.5%. It also gave a viability, T/C [31] of 82.4%, a viability, T/C [32] of 73.5% and a viability, T/C [33] of 73%. For the same compound, the viability, T/C [34] was 68.9%, the viability, T/C [35] was 108% and the viability, T/C [36] was 54.2%.
